# Values joined by “and” are separate entries in the source; they are usually repeats but may differ in a detail not shown here. Equal entries are not always repeated. Inconclusive results and toxic doses are left out.
# Test system: BDF1 mice, P388 leukemia ip, median survival T/C
# Test: NCI In Vivo Anticancer Drug Screen. Data for tumor model P388 Leukemia (intraperitoneal) in B6D2F1 (BDF1) mice
# Details: endpoint: median survival time, higher = longer survival
# Outline: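 Vehicle-dosed animals serve as the reference; survival of compound-dosed, tumour-implanted mice is divided by it.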
# [1] = dose: 100.0 mg/kg/injection, schedule: Q04DX003 (ip), vehicle: Klucel (hydroxypropylcellulose) (HPC)
# [2] = dose: 200.0 mg/kg/injection, schedule: Q04DX003 (ip), vehicle: Klucel (hydroxypropylcellulose) (HPC)
# [3] = dose: 400.0 mg/kg/injection, schedule: Q04DX003 (ip), vehicle: Klucel (hydroxypropylcellulose) (HPC)
# [4] = dose: 100.0 mg/kg/injection, schedule: Q04DX003 (ip), vehicle: saline
# [5] = dose: 200.0 mg/kg/injection, schedule: Q04DX003 (ip), vehicle: saline
# [6] = dose: 400.0 mg/kg/injection, schedule: Q04DX003 (ip), vehicle: saline
# [7] = dose: 25.0 mg/kg/injection, schedule: Q01DX009 (ip), vehicle: saline with Tween-80
# [8] = dose: 50.0 mg/kg/injection, schedule: Q01DX009 (ip), vehicle: saline with Tween-80
# [9] = dose: 100.0 mg/kg/injection, schedule: Q01DX009 (ip), vehicle: saline with Tween-80
# [10] = dose: 200.0 mg/kg/injection, schedule: Q01DX009 (ip), vehicle: saline with Tween-80
# [11] = dose: 6.25 mg/kg/injection, schedule: Q01DX009 (ip), vehicle: saline with Tween-80
# [12] = dose: 12.5 mg/kg/injection, schedule: Q01DX009 (ip), vehicle: saline with Tween-80
# [13] = dose: 100.0 mg/kg/injection, schedule: Q01DX009 (ip), vehicle: saline
# [14] = dose: 200.0 mg/kg/injection, schedule: Q01DX009 (ip), vehicle: saline
# [15] = dose: 400.0 mg/kg/injection, schedule: Q01DX009 (ip), vehicle: saline
# [16] = dose: 400.0 mg/kg/injection, schedule: Q01DX009 (ip), vehicle: saline with Tween-80
smiles,measurement,setting,value
CC(=O)O[C@H]1C(=O)[C@@]2(C)[C@H]([C@H](OC(=O)c3ccccc3)[C@]3(O)C[C@H](OC(=O)[C@H](O)[C@@H](NC(=O)c4ccccc4)c4ccccc4)C(C)=C1C3(C)C)[C@]1(OC(C)=O)CO[C@@H]1C[C@@H]2O,T/C,"dose: 5.0 mg/kg/injection, schedule: Q01DX010 (ip), vehicle: steriod suspending solution",186 % of control
same,T/C,"dose: 10.0 mg/kg/injection, schedule: Q01DX010 (ip), vehicle: steriod suspending solution",172 % of control
same,T/C,"dose: 12.5 mg/kg/injection, schedule: Q04DX003 (iv), vehicle: Klucel (hydroxypropylcellulose) (HPC)",100 % of control
same,T/C,"dose: 20.0 mg/kg/injection, schedule: Q01DX010 (ip), vehicle: steriod suspending solution",190 % of control
same,T/C,"dose: 21.6 mg/kg/injection, schedule: Q04DX003 (ip), vehicle: Klucel (hydroxypropylcellulose) (HPC)",171 % of control
same,T/C,"dose: 25.0 mg/kg/injection, schedule: Q01DX010 (ip), vehicle: steriod suspending solution",113 % of control
same,T/C,"dose: 25.0 mg/kg/injection, schedule: Q04DX003 (ip), vehicle: Klucel (hydroxypropylcellulose) (HPC)",162 % of control
same,T/C,"dose: 25.0 mg/kg/injection, schedule: Q04DX003 (iv), vehicle: Klucel (hydroxypropylcellulose) (HPC)",98 % of control
same,T/C,"dose: 25.9 mg/kg/injection, schedule: Q04DX003 (ip), vehicle: Klucel (hydroxypropylcellulose) (HPC)",179 % of control
same,T/C,"dose: 43.2 mg/kg/injection, schedule: Q04DX003 (ip), vehicle: Klucel (hydroxypropylcellulose) (HPC)",170 % of control
same,T/C,"dose: 50.0 mg/kg/injection, schedule: Q04DX003 (ip), vehicle: Klucel (hydroxypropylcellulose) (HPC)",165 % of control
same,T/C,"dose: 50.0 mg/kg/injection, schedule: Q04DX003 (iv), vehicle: Klucel (hydroxypropylcellulose) (HPC)",103 % of control
same,T/C,"dose: 60.0 mg/kg/injection, schedule: Q04DX003 (ip), vehicle: Klucel (hydroxypropylcellulose) (HPC)",102 % of control
same,T/C,"dose: 72.0 mg/kg/injection, schedule: Q04DX003 (ip), vehicle: Klucel (hydroxypropylcellulose) (HPC)",166 % of control
same,T/C,[1],173 % of control
same,T/C,"dose: 120.0 mg/kg/injection, schedule: Q04DX003 (ip), vehicle: Klucel (hydroxypropylcellulose) (HPC)",100 % of control
COC(OC)c1cc(S)[nH]c(=O)c1F,T/C,[1],100 % of control
same,T/C,[2],110 % of control
same,T/C,[3],100 % of control
C[n+]1ccc(/C=N/O)cc1,T/C,"dose: 25.0 mg/kg/injection, schedule: Q04DX003 (ip), vehicle: saline",105 % of control
same,T/C,"dose: 50.0 mg/kg/injection, schedule: Q04DX003 (ip), vehicle: saline",103 % of control
same,T/C,[4],98 % of control
same,T/C,[5],89 % of control and 100 % of control
same,T/C,[6],86 % of control
CCCCCCCCCCCCS(=O)CC(C)O (stereo unspecified),T/C,"dose: 100.0 mg/kg/injection, schedule: Q01DX009 (ip), vehicle: other",123 % of control
O=[N+]([O-])c1ccc(Nc2ccncc2)cc1,T/C,[4],104 % of control
same,T/C,[5],95 % of control
same,T/C,[6],104 % of control
BrCC12CCC1(CBr)COC2 (stereo unspecified),T/C,"dose: 100.0 mg/kg/injection, schedule: Q01DX001 (ip), vehicle: Klucel (hydroxypropylcellulose) (HPC)",107 % of control
same,T/C,"dose: 200.0 mg/kg/injection, schedule: Q01DX001 (ip), vehicle: Klucel (hydroxypropylcellulose) (HPC)",92 % of control
same,T/C,"dose: 400.0 mg/kg/injection, schedule: Q01DX001 (ip), vehicle: Klucel (hydroxypropylcellulose) (HPC)",100 % of control
N#Cc1nc2ccccc2nc1C#N,T/C,"dose: 12.5 mg/kg/injection, schedule: Q01DX009 (ip), vehicle: Klucel (hydroxypropylcellulose) (HPC)",106 % of control
same,T/C,"dose: 25.0 mg/kg/injection, schedule: Q01DX009 (ip), vehicle: Klucel (hydroxypropylcellulose) (HPC)",99 % of control
CS(=O)(=O)Nc1ccccc1-c1nc2ccccc2c(=O)o1,T/C,[7],105 % of control
same,T/C,[8],104 % of control
same,T/C,[9],105 % of control
same,T/C,[10],103 % of control
CCOC(=O)C(=O)NNc1cccc(Cl)n1,T/C,"dose: 100.0 mg/kg/injection, schedule: Q01DX001 (ip), vehicle: saline with Tween-80",94 % of control
same,T/C,"dose: 200.0 mg/kg/injection, schedule: Q01DX001 (ip), vehicle: saline with Tween-80",86 % of control
same,T/C,"dose: 400.0 mg/kg/injection, schedule: Q01DX001 (ip), vehicle: saline with Tween-80",112 % of control
Clc1cc(Cl)c(CBr)cc1CBr,T/C,"dose: 3.13 mg/kg/injection, schedule: Q01DX009 (ip), vehicle: saline with Tween-80",109 % of control
same,T/C,[11],100 % of control
same,T/C,[12],104 % of control
O=S(=O)(Nc1ccc(NS(=O)(=O)c2ccccc2)nc1)c1ccccc1,T/C,[1],100 % of control
same,T/C,[2],104 % of control
same,T/C,[3],100 % of control
COc1cc(NC(C)CCCN)c2ncccc2c1Oc1ccc(Cl)cc1 (stereo unspecified),T/C,[8],100 % of control
O=C1NCC(COc2ccc(Cl)cc2)O1 (stereo unspecified),T/C,"dose: 50.0 mg/kg/injection, schedule: Q01DX009 (ip), vehicle: Klucel (hydroxypropylcellulose) (HPC)",108 % of control
same,T/C,"dose: 100.0 mg/kg/injection, schedule: Q01DX009 (ip), vehicle: Klucel (hydroxypropylcellulose) (HPC)",105 % of control
same,T/C,"dose: 200.0 mg/kg/injection, schedule: Q01DX009 (ip), vehicle: Klucel (hydroxypropylcellulose) (HPC)",105 % of control
C=C1C(=O)OC2/C=C(\C)CC/C=C(/C)CC(O)C12 (stereo unspecified),T/C,"dose: 5.0 mg/kg/injection, schedule: Q04DX003 (ip), vehicle: saline with Tween-80",98 % of control
same,T/C,"dose: 10.0 mg/kg/injection, schedule: Q04DX003 (ip), vehicle: saline with Tween-80",114 % of control
same,T/C,"dose: 20.0 mg/kg/injection, schedule: Q04DX003 (ip), vehicle: saline with Tween-80",98 % of control
Cc1cccc(NS(=O)(=O)c2ccc(Cl)cc2)c1C,T/C,[4],100 % of control
same,T/C,[5],95 % of control
same,T/C,[6],108 % of control
NC(=O)NCCNC(N)=O,T/C,[13],95 % of control
same,T/C,[4],112 % of control
same,T/C,[14],95 % of control
same,T/C,[5],95 % of control
same,T/C,[15],91 % of control
same,T/C,[6],112 % of control
Cn1ncc2c(NCc3ccc(Cl)cc3)ncnc21,T/C,[11],97 % of control
same,T/C,[12],101 % of control
same,T/C,[7],93 % of control
same,T/C,[8],97 % of control
FC(F)(Cl)c1nc2nc(Cl)c(Cl)nc2[nH]1,T/C,"dose: 266.0 mg/kg/injection, schedule: Q04DX003 (ip), vehicle: other",100 % of control
same,T/C,"dose: 400.0 mg/kg/injection, schedule: Q04DX003 (ip), vehicle: other",108 % of control
same,T/C,"dose: 600.0 mg/kg/injection, schedule: Q04DX003 (ip), vehicle: other",108 % of control
OCc1ccccc1,T/C,[9],95 % of control
same,T/C,[10],104 % of control
same,T/C,[16],108 % of control
O/C(=C\C(=S)S)c1ccc(Cl)cc1,T/C,"dose: 0.39 mg/kg/injection, schedule: Q04DX003 (ip), vehicle: saline with Tween-80",100 % of control
same,T/C,"dose: 0.78 mg/kg/injection, schedule: Q01DX009 (ip), vehicle: saline with Tween-80",97 % of control
same,T/C,"dose: 0.78 mg/kg/injection, schedule: Q04DX003 (ip), vehicle: saline with Tween-80",92 % of control and 106 % of control (2×)
same,T/C,"dose: 1.56 mg/kg/injection, schedule: Q01DX009 (ip), vehicle: saline with Tween-80",118 % of control
same,T/C,"dose: 1.56 mg/kg/injection, schedule: Q04DX003 (ip), vehicle: saline with Tween-80",97 % of control and 113 % of control
same,T/C,"dose: 3.12 mg/kg/injection, schedule: Q01DX009 (ip), vehicle: saline with Tween-80",106 % of control
same,T/C,"dose: 3.12 mg/kg/injection, schedule: Q04DX003 (ip), vehicle: saline with Tween-80",95 % of control and 100 % of control and 120 % of control
same,T/C,[11],112 % of control
same,T/C,"dose: 6.25 mg/kg/injection, schedule: Q04DX003 (ip), vehicle: saline with Tween-80",88 % of control and 103 % of control
same,T/C,[12],86 % of control
CC(=O)OCC1OC(n2cnc3c(=S)nc[nH]c32)C(OC(C)=O)C1OC(C)=O (stereo unspecified),T/C,[9],118 % of control
same,T/C,[10],109 % of control
same,T/C,[16],90 % of control
Cc1nc2c(=O)[nH]n(C)c2nc1C,T/C,[9],97 % of control
same,T/C,"dose: 100.0 mg/kg/injection, schedule: Q04DX003 (ip), vehicle: saline with Tween-80",95 % of control
same,T/C,[10],97 % of control
same,T/C,"dose: 200.0 mg/kg/injection, schedule: Q04DX003 (ip), vehicle: saline with Tween-80",94 % of control
same,T/C,"dose: 400.0 mg/kg/injection, schedule: Q04DX003 (ip), vehicle: saline with Tween-80",99 % of control
CCOc1ccc(Br)cc1/C=C/C(C)=O,T/C,[13],109 % of control
same,T/C,[4],112 % of control
same,T/C,[14],95 % of control
same,T/C,[5],95 % of control
same,T/C,[15],104 % of control
same,T/C,[6],100 % of control

# From PubChem BioAssay AID328 (DTP/NCI, 2004)
